Read-outs that look alike come from different tables or passages of the source.
Experiments:
[1] = test system: P. falciparum Dd2 Cytb F123L; experiment: SYBR Green ABS proliferation assay, NCGC00473217 selected clone G08; type: cell-based, Plasmodium falciparum; parameters: log AC50, mean: unit: log10(M); conditions: for AC50: Plasmodium falciparum; for log AC50, mean: cytochrome b mutant line
Procedure: (§1) As resistance selection studies implicated the parasite cytochrome bc1 complex in mediating reduced parasite susceptibility to both NCGC00473217 and NCGC00374598, we leveraged these drug-selected parasites to test for altered drug response to a panel of antimalarial compounds.
(§2) The P. falciparum parasite Dd2 line was cultured in vitro using standard conditions. […] Tissue culture flasks and assay plates were incubated at 37 °C under a gas mixture of 5% CO2, 5% O2 and 90% N2. […] Significant differences were assessed using two-sided Student’s t-tests. All HTS assays were stopped and read at 72 h. Percent response values represent relative growth as judged by SYBR Green-I fluorescence intensity values normalized to controls.
(§3) Fresh uninfected RBCs (0.5% hematocrit) were added on day 7 and media was changed every other day. […] Resistant parasites were maintained under drug media at a volume of 50 mL until a high parasitemia (> 5%) was achieved. Aliquots of the bulk resistant cultures were frozen in cryovials before cloning by limiting dilution in 96-well plates (seeded at 0.25 or 0.5 parasites/well)[70]. After 3 weeks of cloning, we screened for positive wells by flow cytometry with SYBR Green-stained cells. […] Parasites were harvested by saponin lysis at the trophozoite stage and genomic DNA was extracted using the QIAamp DNA Blood Midi Kit (Qiagen, Germantown, MD)[71].

[2] = test system: P. falciparum Dd2 Cytb A122D; experiment: SYBR Green ABS proliferation assay, NCGC00473217 selected clone F12; type: cell-based, Plasmodium falciparum; conditions: Plasmodium falciparum
Procedure: as §1, §2, §3

[3] = test system: P. falciparum Dd2 Cytb V259L; experiment: SYBR Green ABS proliferation assay, NCGC00473217 selected clone F06; type: cell-based, Plasmodium falciparum; conditions: Plasmodium falciparum
Procedure: as §1, §2, §3

[4] = test system: P. falciparum Dd2 Cytb G131S; experiment: SYBR Green ABS proliferation assay, NCGC00374598 selected clone C11; type: cell-based, Plasmodium falciparum; conditions: Plasmodium falciparum
Procedure: as §1, §2, §3

[5] = test system: P. falciparum Dd2 (clone B2) asexual blood stage parasites; experiment: P. falciparum Dd2 asexual blood stage SYBR Green-I 72 h proliferation assay (qHTS); type: cell-based, Plasmodium falciparum; conditions: Plasmodium falciparum, DD2, Dd2 parental; Hill fit, averaged from three independent replicates; top concentration 29 µM; read-out: Average AC50 (Log[M]), Dd2 (converted)
[6] = test system: Plasmodium falciparum Dd2 asexual blood stage parasites; experiment: microbe, parasite or virus in culture; parameters: species or system Plasmodium falciparum Dd2 in human erythrocytes; single determination (one 11-point concentration-response curve); conditions: Plasmodium falciparum, DD2, Erythrocyte, 72 h; read-out: AC50
[7] = test system: P. berghei-ANKA-GFP-LucCON liver stage parasites in HepG2-A16-CD81EGFP cells; experiment: P. berghei liver stage Pb-Luc assay, Method 1 (UCSD, 1536-well); type: cell-based, Plasmodium berghei; conditions: Method 1; for AC50: Plasmodium berghei
[8] = test system: luciferase-expressing P. berghei liver stage parasites in HepG2 cells; experiment: Inhibition of liver-stage development assay (ILSDA), Method 2 (WRAIR, 96-well); type: cell-based, Plasmodium berghei; conditions: P. berghei liver stage, Method 2, dose response
[9] = DD2, […], averaged from three independent replicates, top concentration 29 µM, read-out: Average AC50 (Log[M]), NCGC00473217 clone G08 (Cytb F123L) (converted)
[10] = DD2, […], averaged from three independent replicates, top concentration 29 µM, read-out: Average AC50 (Log[M]), NCGC00473217 clone F12 (Cytb A122D) (converted)
[11] = DD2, […], averaged from three independent replicates, top concentration 29 µM, read-out: Average AC50 (Log[M]), NCGC00473217 clone F06 (Cytb V259L) (converted)
[12] = DD2, […], averaged from three independent replicates, top concentration 29 µM, read-out: Average AC50 (Log[M]), NCGC00374598 clone C11 (Cytb G131S) (converted)
[13] = DD2, cytochrome b mutant line, third value triple, c9, […], read-out: log AC50, mean (converted)
[14] = DD2, cytochrome b mutant line, second value triple, c6, […], read-out: log AC50, mean (converted)
[15] = DD2, cytochrome b mutant line, fifth value triple, c15, […], read-out: log AC50, mean (converted)
[16] = DD2, cytochrome b mutant line, fourth value triple, c12, […], read-out: log AC50, mean (converted)

| Structure (SMILES) | AC50 [1, 9] [M] | AC50 [2, 10] [M] | AC50 [3, 11] [M] | AC50 [4, 12] [M] | AC50 [5] [M] | AC50 [1, 15] [M] | further results |
| --- | --- | --- | --- | --- | --- | --- | --- |
| NS(=O)(=O)c1cc2c(cc1Cl)NC(C1CC3C=CC1C3)NS2(=O)=O (stereo not drawn) [NCGC00015288-06] | 5.64e-07 | 7.1e-07 | – | – | – | – | – |
| N[S+](=O)([O-])c1cc2c(cc1Cl)NCN[S+]2(=O)[O-] [NCGC00015508-23] | – | 1.78e-07 | 5.64e-07 | 8.93e-07 | 7.1e-07 | – | – |
| N[S+](=O)([O-])c1cc2c(cc1C(F)(F)F)NCN[S+]2(=O)[O-] [NCGC00016401-08] | 3.56e-06 | 3.56e-06 | 3.85e-06 | 2.24e-05 | – | – | – |
| NS(=O)(=O)c1cc2c(cc1C(F)(F)F)NC(Cc1ccccc1)NS2(=O)=O (stereo not drawn) [NCGC00018194-08] | 8.93e-06 | – | 1.26e-06 | 1e-08 | – | – | – |
| N[S+](=O)([O-])c1cc2c(cc1Cl)NC(C(Cl)Cl)N[S+]2(=O)[O-] (stereo not drawn) [NCGC00018302-09] | 5.02e-06 | 6.32e-07 | 1.42e-06 | – | – | – | – |
| CN1C(CSCC(F)(F)F)Nc2cc(Cl)c(S(N)(=O)=O)cc2S1(=O)=O (stereo not drawn) [NCGC00182076-03] | – | 1e-08 | – | 3.56e-06 | 2.82e-06 | – | – |
| CC(C)c1nc2c(c(-c3ccc(Cl)cc3)n1)CCN(C(=O)c1ccc(C(F)(F)F)cc1)CC2 [NCGC00374584-01] | – | – | – | – | – | 8.41e-06 | AC50 [3, 13]: 7.5e-06 M; AC50 [4, 14]: 6.93e-06 M; AC50 [2, 16]: 7.5e-06 M |
| Cc1cc(CN2CCc3nc(C(C)C)nc(-c4ccc(Cl)cc4)c3CC2)no1 [NCGC00374612-01] | – | – | – | – | – | 9.79e-06 | AC50 [3, 13]: 1.38e-05 M; AC50 [4, 14]: 1.55e-05 M; AC50 [2, 16]: 1.68e-05 M |
| COc1ccc(-c2nc(C3CC3)nc3c2CCN(Cc2ccccc2)CC3)cc1 [NCGC00374622-01] | – | – | – | – | – | 6.68e-06 | AC50 [3, 13]: 6.93e-06 M; AC50 [4, 14]: 6.43e-06 M; AC50 [2, 16]: 6.93e-06 M |
| COc1ccc(-c2nc(C3CC3)nc3c2CCN(Cc2ccc(F)cc2)CC3)cc1 [NCGC00374624-01] | – | – | – | – | – | 9.08e-06 | AC50 [3, 13]: 9.79e-06 M; AC50 [4, 14]: 8.73e-06 M; AC50 [2, 16]: 1.1e-05 M |
| O=c1[nH]c(N2CCOCC2)nc2c1CCN(Cc1cc(Cl)ccc1F)CC2 [NCGC00440651-01] | – | – | – | – | – | 2.16e-06 | AC50 [6]: 2.37 µM; log AC50, mean ([1]; fifth value triple, c15, […]): -5.575; AC50 ([7]; Hill fit, 50% of maximum activity response, read-out: AC50): 2.82 µM; AC50 ([7]; log10 of molar AC50 from Hill fit, read-out: Log AC50 (converted)): 2.82 µM; Activity direction (Decrease / Inactive) [8]: Inactive |
| O=c1[nH]c(N2CCOCC2)nc2c1CCN(Cc1ccc(Cl)cc1F)CC2 [NCGC00440653-01] | – | – | – | – | – | 2.16e-06 | AC50 [6]: 3.35 µM; log AC50, mean ([1]; fifth value triple, c15, […]): -5.475; Max Resp (signal direction of the dose response) ([7]; Decrease = decreasing P. berghei viability with dose, Increase = increasing signal, Inactive = no dose response): Inactive; Activity direction (Decrease / Inactive) [8]: Inactive |
| CCCN1C(CC(C)C)=N[S+](=O)([O-])c2cc([N+](=O)[O-])ccc21 [NCGC00510308-01] | 2.52e-09 | – | 1.59e-05 | – | – | – | – |
| CCCN1C(CC(C)C)=N[S+](=O)([O-])c2cc(NC(=O)c3cnon3)ccc21 [NCGC00521034-01] | 1.59e-06 | – | 1e-05 | – | – | – | – |
| CCCN1C(CC(C)C)=N[S+](=O)([O-])c2cc(NC(=O)c3cncs3)ccc21 [NCGC00521052-01] | – | 1.72e-06 | 5.86e-06 | 6.58e-07 | 4.84e-06 | – | – |
| CC(C)CC1=N[S+](=O)([O-])c2cc(NC(=O)c3cccs3)ccc2N1C [NCGC00521057-01] | 1.89e-07 | 1e-06 | – | 2.24e-07 | 1.85e-06 | – | – |
| CCCN1C(CC(C)C)=N[S+](=O)([O-])c2cc(NC(=O)COC)ccc21 [NCGC00521098-01] | – | 1.12e-05 | 1.68e-05 | 3.56e-06 | 8.93e-06 | – | – |
| CCCN1C(CC(C)C)=N[S+](=O)([O-])c2cc(NC(=O)c3ccc(F)cc3)ccc21 [NCGC00521139-01] | – | 4.74e-07 | 5.64e-07 | 3.56e-07 | 5.22e-07 | – | – |
| CCCN1C(CC(C)C)=N[S+](=O)([O-])c2cc(N)ccc21 [NCGC00521151-01] | 3.99e-06 | – | – | 2e-06 | 2e-05 | – | – |

Reference: publication PMC7822874, “Chemoprotective antimalarials identified through quantitative high-throughput screening of Plasmodium blood and liver stage parasites” (Scientific Reports, 2021)
